The target of the test is T1, Glucocorticoid receptor (Homo sapiens, UniProt P04150).
T1 sequence (P04150 whole entry): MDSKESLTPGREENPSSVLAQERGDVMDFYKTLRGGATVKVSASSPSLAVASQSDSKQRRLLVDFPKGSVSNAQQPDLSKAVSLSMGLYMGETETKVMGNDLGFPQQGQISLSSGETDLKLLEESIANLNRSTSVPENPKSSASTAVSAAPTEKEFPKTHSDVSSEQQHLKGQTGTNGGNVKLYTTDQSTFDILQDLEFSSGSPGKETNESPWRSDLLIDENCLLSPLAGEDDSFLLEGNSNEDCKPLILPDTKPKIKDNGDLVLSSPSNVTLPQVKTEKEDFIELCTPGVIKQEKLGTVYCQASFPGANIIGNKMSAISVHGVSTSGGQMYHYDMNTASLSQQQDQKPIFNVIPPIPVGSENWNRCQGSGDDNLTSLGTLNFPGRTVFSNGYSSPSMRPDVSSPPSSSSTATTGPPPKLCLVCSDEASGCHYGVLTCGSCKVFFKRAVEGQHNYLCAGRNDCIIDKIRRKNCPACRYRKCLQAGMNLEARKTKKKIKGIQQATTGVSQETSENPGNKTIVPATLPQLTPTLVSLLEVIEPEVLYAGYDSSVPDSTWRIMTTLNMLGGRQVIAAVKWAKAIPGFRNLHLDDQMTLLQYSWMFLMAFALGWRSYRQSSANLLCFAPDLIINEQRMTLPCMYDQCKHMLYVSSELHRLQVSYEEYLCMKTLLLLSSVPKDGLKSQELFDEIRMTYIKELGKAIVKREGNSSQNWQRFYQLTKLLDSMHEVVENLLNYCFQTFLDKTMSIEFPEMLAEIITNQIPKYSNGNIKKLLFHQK
Put plainly: Inhibition of glucocorticoid receptor.

Structures are written as SMILES.

Broadly, the IC50 is the midpoint of a concentration-inhibition curve. Low values mean inhibition by little substance, high ones a need for much substance.

On to `C[C@@H]1C[C@H]2[C@@H]3CCC4=CC(=O)C=C[C@]4(C)[C@@]3(F)[C@@H](O)C[C@]2(C)[C@@]1(O)C(=O)CSCCC(N)=O`, for which half-maximal inhibition (IC50) was put at 36 nM.

Take `C[C@@H]1C[C@H]2[C@@H]3CCC4=CC(=O)C=C[C@]4(C)[C@@]3(F)[C@@H](O)C[C@]2(C)[C@@]1(O)C(N)=O` [OXDEX]: the IC50 came to 600 nM.

Source of the values: ChEMBL document CHEMBL1150407, “High-throughput evaluation of relative cell permeability between peptoids and peptides” (Bioorg Med Chem, 2008).
